Test results reported in patent publication US20160367457A1, “CAPRYLOYL ALANINE ETHYLESTER AS A PENETRATION ENHANCER” (BASF SE, priority 2014, published 2016).
Like-named read-outs stand apart in the source and are kept apart here.

Tests used:
[1] = Penetration study with the enhancer applied directly to the skin (preincubation), Franz cells, radiolabeled markers from W/O formulation 1
Protocol: The aim of the present study was to determine the potency of three test substances (one being the closest prior art penetration enhancer) to act as skin permeation enhancer in cosmetic formulations: • Dimethyl isosorbide (DMI) a well-known penetration enhancer—used in cosmetics • Penetration Enhancer 1 (PE1)—capryloyl alanine ethylester • Penetration Enhancer 2 (PE2)—closest prior art molecule dodecyloyl alanine ethylester
The tests were performed by an independent test institute specialized in penetration testing. […] The skin was pre-incubated with the selected penetration enhancers (DMI, PE1 and PE2) and after incubation time of 30 min formulation was removed from the skin surface and formulation 1 spiked with radiolabeled ^3H-caffeine or ^3H-Vitamin E acetate was applied.
The impact of the three penetration enhancers on the skin absorption rate of caffeine and Vitamin E acetate (representative hydrophilic and lipophilic cosmetic actives, respectively) incorporated into a w/o formulation was investigated. Radiolabeled caffeine and Vitamin E acetate were used as markers. The in vitro skin permeation studies were performed with dermatomized human skin (approximately 500 μm in thickness) over a period of 24 h in triplicate. Samples from the acceptor compartment were taken at four sampling times (1, 3, 6 and 24 h) to screen the permeation enhancement effect.
The transdermal absorption of the test compounds ^3H-caffeine and ^3H-Vitamin E acetate was monitored by measuring the amount of radio labeled substances in the acceptor medium.
The test compounds were quantified by liquid scintillation counting.
In accordance to the SCCP Guidelines of the European Commission the excised human skin from surgery is an appropriate in vitro test system to simulate the permeation and penetration processes of a compound into and across human skin under in vivo conditions.
For the penetration study, the human skin (female abdomen skin) of one donor which was dermatomized to a thickness of 500±100 μm was used and tests were conducted in triplicate. Full-thickness skin was prepared from the skin biopsies and stored at −20° C. […] The skin was used immediately after thawing. Repeated freeze-thaw cycles were avoided.
Formulation 1 (without penetration enhancer) was spiked with radiolabeled ^3H-caffeine (specific activity: 60 Ci/mmol) and ^3H-Vitamin E acetate (specific activity: 50 Ci/mmol) and applied as control directly to the skin. The radio labeled samples were prepared as follows: Formulation 1 was spiked with either radiolabeled ^3H-caffeine or ^3H-Vitamin E acetate resulting in 2960000 cpm/50 μl or 1264557 cpm/50 μl, respectively. One of the three different penetration enhancers (DMI, PE1 and PE2) was applied to the skin prior to the application of the radioactively spiked W/O-formulation.
Krebs Ringer buffer (KRB, pH=7.4) was prepared according to an internal standard operation procedure. KRB was used as the acceptor medium for ^3H-caffeine. For ^3H-Vitamin E acetate, KRB supplemented with 2% bovine serum albumin (BSA) was used as the acceptor medium. Solutions of ^3H-caffeine and ^3H-Vitamin E acetate were used to validate the detection method and to assess linearity.
(§1) Permeation study was performed in four fold determination with the test and the reference item at human skin. For the transport studies the dermatomized skin was cut with a punch of 24 mm diameter and the thickness of the skin was measured at five points for each sample. Subsequently the skin pieces were fastened on cylindrical glass Franz cells which are employed as diffusion chambers. The lower (acceptor) chamber has a volume of approximately 12 ml, while the volume of the upper (donor) chamber is variable. The skin was inserted with the dermal layer facing downwards so that the skin's corneous layer is uppermost.

[2] = Penetration study with 5% enhancer incorporated into W/O formulation
Protocol: as §1
PE2 (C12) which is solid at room temperature, was gently melted in a water bath (at 35 to 40° C.) and applied as liquid. After 30 min of incubation the liquid penetration enhancers were gently removed with cotton balls. In the case of PE2 which solidified on the skin, the solid film was removed with a pincer. Thereafter 50 μl of the formulations were applied at the surface of the skin. The acceptor medium was thermostated at 32° C. and continuously stirred at a rate of 400 rpm. The diffusion area of skin was approximately 1.8 cm^2. Permeation through the skin into the acceptor medium was monitored over a period of 24 hours. The acceptor medium was sampled at 4 different time points, after 1, 3, 6 and 24 hours, by withdrawing samples of 200 μl. After withdrawing a sample volume, the acceptor medium was refilled with pre-warmed KRB/KRB+2% BSA. The concentration of active ingredients in the acceptor chamber was corrected to take the dilution introduced by sampling into account. Taken samples were mixed with 210 μl or 500 μl of scintillation cocktail for at least 1 hour at 200 rpm and radioactivity measured by scintillation counting.
The described study was partly repeated in a similar experimental setup with three test substances to act as skin permeation enhancer when incorporated into the cosmetic formulation and not applied directly to the skin: • Dimethyl isosorbide (DMI) a well-known penetration enhancer—used in cosmetics • Penetration Enhancer 1 (PE1)—capryloyl alanine ethylester • Penetration Enhancer 2 (DGME)—prior art penetration enhancer Transcutol (Gattefossee), diethylene glycol mono ethyl ether
Formulation 1 (W/O formulation) served as a basic formulation and as a reference without any penetration enhancer. This time the skin was not pre-incubated with the selected penetration enhancers (DMI, PE1 and DGME), but 5% of the respective penetration enhancer was incorporated into formulation 1 and the resulting formulations were spiked once again with radiolabeled ^3H-caffeine or ^3H-Vitamin E acetate.

[3] = Hansen Solubility Parameters (HSP) distance to the stratum corneum; format: physicochemical
Text: Capryloyl alanine ethyl ester turned out to have a smaller Hansen Solubility Parameters (HSP) distance to the stratum corneum than well-known and established references like DMI and ethyldiethylenglycol which indicates a good potential as skin penetration enhancer. Hansen Solubility Parameters are a key indicator for good partitioning into the stratum corneum provided the molecule is liquid at RT and has a small enough molecular volume.

[4] = Penetration of the penetration enhancer itself through the skin; format: in vitro ADME
Text: Furthermore, capryloyl-alanine ethylester can be metabolized in the skin thereby contributing to an improved toxicological profile.

[5] = after 24 hours, skin pre-incubated 30 min with 20 μl enhancer, then W/O formulation 1 with 3H-caffeine, n = 3
[6] = after 24 hours, versus reference without enhancer, preincubation, n = 3
[7] = at 24 hours, skin pre-incubated 30 min with 20 μl enhancer, then W/O formulation 1 with 3H-Vitamin E acetate, n = 3
[8] = at 24 hours, versus reference without enhancer, preincubation, n = 3
[9] = preincubation, 24 h detection time
[10] = preincubation, caffeine in w/o formulation, 24 h

| Compound | Average cumulative transport of 3H-caffeine [1, 5] [dpm/cm^2] | Enhancement Ratio for 3H-caffeine [1, 6] | Average cumulative transport of 3H-Vitamin E acetate [1, 7] [dpm/cm^2] | Enhancement Ratio for 3H-Vitamin E acetate [1, 8] | Effect on transport of Vitamin E acetate [1, 9] | Caffeine transport compared to the control without any penetration enhancer [1, 10] | Effect on transport of caffeine compared to the reference formulation without any enhancer [2] | Average cumulative transport of 3H-caffeine ([2]; human, 24 h, 5 %, pH 7.4) [cpm/cm2] | Enhancement Ratio for 3H-caffeine ([2]; human, 24 h, 5 %, pH 7.4) | also measured |
| --- | --- | --- | --- | --- | --- | --- | --- | --- | --- | --- |
| CO[C@H]1CO[C@H]2[C@@H]1OC[C@H]2OC [DMI, Dimethyl isosorbide] | 203120 | 2.40 | 2578 | 1.01 | only a slight penetration enhancing effect | around twice | – | – | – | Average cumulative transport of 3H-caffeine ([2]; at 24 hours, 5% enhancer incorporated into w/o formulation, n = 4): 212.435 cpm/cm2; Enhancement Ratio for 3H-caffeine ([2]; at 24 hours, 5% enhancer incorporated, versus reference formulation 1 without enhancer, n = 4): 0.86; Effect on transport of caffeine compared to the reference formulation without any enhancer ([2]; enhancer incorporated into W/O formulation): slightly decreased transport |
| CCCCCCCCCCCC(=O)N[C@@H](C)C(=O)OCC [PE2, dodecyloyl alanine ethylester] | 262929 | 3.11 | 1814 | 0.70 | reduced the transport | approximately 3 times | – | – | – | – |
| CCOCCOCCO [DGME, diethylene glycol mono ethyl ether] | – | – | – | – | – | – | slightly enhanced the transport | 278.404 | 1.12 | – |
| CCCCCCCC(=O)N[C@@H](C)C(=O)OCC [PE1, capryloyl alanine ethylester] | – | – | – | – | – | – | most effective permeation enhancer | 342.593 | 1.38 | HSP distance to the stratum corneum compared with DMI and ethyldiethylenglycol [3]: smaller; Effect on transport of Vitamin E acetate [1]: only a slight penetration enhancing effect; Average cumulative transport of 3H-Vitamin E acetate ([1]; female, human, 24 h, pH 7.4): 2712 dpm/cm^2; Average cumulative transport of 3H-caffeine ([1]; female, human, 24 h, pH 7.4): 414024 dpm/cm^2; Caffeine transport compared to the control without any penetration enhancer ([1]; female, human, 24 h, pH 7.4): approximately 5 times; Enhancement Ratio for 3H-Vitamin E acetate ([1]; female, human, 24 h, pH 7.4): 1.06; Enhancement Ratio for 3H-caffeine ([1]; female, human, 24 h, pH 7.4): 4.89; Penetration of Vitamin E acetate with PE1 in comparison to PE2 ([1]; female, human, 24 h, pH 7.4): 1.5 fold; Penetration of the enhancer itself through the skin compared with DMI [4]: lesser degree than DMI |
